Literature values as cited in patent publication US4076804A, “Erythromycin therapy” (Abbott Laboratories, priority 1976, dated 1978).

Settings: general statement, no test described

For `CCOC(=O)CCC(=O)O[C@H]1[C@H](O[C@@H]2[C@@H](C)[C@H](O[C@H]3C[C@@](C)(OC)[C@@H](O)[C@H](C)O3)[C@@H](C)C(=O)O[C@H](CC)[C@@](C)(O)[C@H](O)[C@@H](C)C(=O)[C@H](C)C[C@@]2(C)O)O[C@H](C)C[C@@H]1N(C)C` [EES, erythromycin ethyl succinate], the toxicity is given as “very low toxicity”.
